The values that follow come from patent US20250288627A1, “COMPOSITION FOR AMELIORATING, PREVENTING OR TREATING SYSTEMIC SCLEROSIS AND PULMONARY FIBROSIS CONTAINING BIFIDOBACTERIUM LONGUM RAPO” (INDUSTRY-ACADEMIC COOPERATION FOUNDATION GYEONGSANG …, priority 2024, published 2025).

The subject of the experiment is mice with idiopathic pulmonary fibrosis. Briefly: Single/combination administration of pirfenidone and Bifidobacterium longum RAPO in idiopathic pulmonary fibrosis mice (intratracheal BLM 2 U/mouse kg). The format is in vivo. The conditions noted are these: for pulmonary fibrosis: FIG. 3. From the text:
To determine whether or not administration of a combination of pirfenidone (PFD), which is a conventional approved and used drug for pulmonary fibrosis, with Bifidobacterium longum RAPO, has a synergistic therapeutic effect due to Bifidobacterium longum RAPO, the inhibitory effects on pulmonary fibrosis after single and combination administration of PFD and Bifidobacterium longum were compared and evaluated in mice with idiopathic pulmonary fibrosis.
Idiopathic pulmonary fibrosis was induced by a single intratracheal injection of 50 μL (2 U/mouse kg) of BLM into 8-week-old male C57BL/6 mice to induce pulmonary fibrosis. Pirfenidone (PFD) and Bifidobacterium longum RAPO were administered orally 5 times a week for a total of 2 weeks, starting 7 days after inducing pulmonary fibrosis with BLM until the 21st day, the end date of the experiment. The administration groups and doses were as follows: 1) Normal control group: normal mice that were not administered any treatment; 2) disease control group: IPF mice administered vehicle containing neither PFD nor Bifidobacterium longum RAPO; 3) P100 group: IPF mice administered PFD 100 mg/mouse kg; 4) P200 group: IPF mice administered PFD 200 mg/mouse kg; 5) RAPO-A group: IPF mice administered Bifidobacterium longum RAPO 1×10^8 CFU/mouse; 6) RAPO-B group: IPF mice administered Bifidobacterium longum RAPO 5×10^8 CFU/mouse; 8) Comb A group: IPF mice administered a combination of PFD 100 mg/mouse kg and Bifidobacterium longum RAPO 1×10^8 CFU/mouse; 7) Comb B group: IPF mice administered a combination of 100 mg/mouse kg and Bifidobacterium longum RAPO 5×10^8 CFU/mouse. Efficacy evaluation was performed as follows. Lung tissues of mice with fibrosis induced on the 21st day after the start of BLM administration were sampled and fixed with formalin to form paraffin tissue blocks. The formed paraffin blocks were cut into 5 μm thick sections with a microtome and stained with Masson-Trichrome (MT), and the degree of pulmonary fibrosis was evaluated by analysis of an Ashcroft score, a collagen area, and an alveoli area.

[1] abbreviates: P100 group: PFD 100 mg/mouse kg alone, compared to vehicle group.

`Cc1ccc(=O)n(-c2ccccc2)c1` [PFD, pirfenidone]: the “pulmonary fibrosis amelioration relative to P200 group” value (P100 group: PFD 100 mg/mouse kg alone, compared to P200 group) is “did not ameliorate pulmonary fibrosis comparable to the P200 group”. Under setting [1], the Ashcroft score result is given as “improvement”, the collagen area result is listed as “improvement” and the pulmonary fibrosis result is “also alleviated pulmonary fibrosis”. In addition, the pulmonary fibrosis result (P200 group: PFD 200 mg/mouse kg alone, oral, 5 times a week, 2 weeks, compared to vehicle group) is listed as “significantly alleviated pulmonary fibrosis”.
